These results are taken from US20240358678A1, “METHODS AND COMPOSITIONS FOR ENHANCING CHEMOTHERAPEUTIC DRUG UPTAKE INTO BRAIN TUMORS” (Brown University, priority 2023, published 2024).

The test system of this experiment is G30 tumor-bearing mice. Nature of the experiment: Sodium fluorescein (NaF) BTB permeability study. It counts as in vivo. On the procedure:
In vivo studies: For intra-cranial tumor implantation, GBM neuro-spheres were grown to 70% confluency before dissociated into single cell on the day of surgery. 50,000 cells were resuspended in 3 μl of sterile PBS and injected intracranially into the striatum (2 mm right hemisphere, 1 mm frontal, 3 mm depth from bregma) of mice under anesthesia and stereo-tactically fixed. Tumors were left to grow for approximately 2-3 weeks, depending the cell line. Animals were randomized to treatment groups. BIA injections consisted of 20 mg/kg (i.p.), except if indicated otherwise. PPRX-1701 was administered at 20 mg/kg (i.v.) via lateral tail-vein. Cisplatin injections were performed at 5 mg/kg (maximum tolerated dose, i.p.). […]
Sodium fluorescein (NaF) BTB permeability studies: NaF was administered to G30 tumor-bearing mice intravenously (i.v.) via lateral tail vein at 20 mg/kg. Then, 30 minutes after administration when peak fluorescence is reached in the brain, mice were euthanized for immediate brain tissue harvest. […] Quantification of pixel intensities from acquired images was performed in ImageJ. Tissue samples were then homogenized in 1 mL of 60% trichloroacetic acid in PBS and measured at 488 nm in a Molecular Devices SpectraMax M2 plate reader.

As to `CC(=O)ON=C1C(=C2C(=O)Nc3cc(Br)ccc32)Nc2ccccc21` [BIA, 6-bromoindirubin acetoxime], under “after BIA administration”, the “NaF fluorescent signal in healthy brain” value is “not in healthy brain”. Also, the “NaF fluorescent signal in the tumor” value (after BIA administration vs untreated controls) was “significant accumulation in the tumor”.
